From PubChem BioAssay (NCI) come the findings set out here.

Assay in all cases: NCI tumour cell line growth inhibition, 48 h
Test [1] has as its system IGROV1 ovarian.
For test [2], the system named is SF-268 CNS.
For test [3], the system named is COLO 205 colon.
The subject of test [4] is CCRF-CEM leukemia.
Test [5] concerns RPMI-8226 leukemia.
Test [6] concerns NCI-H226 lung.
The test system of test [7] is MALME-3M melanoma.
Test [8] deals with A549 NSCLC.
Test [9] deals with A498 renal.
Test [10] concerns MDA-MB-435.

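Following 48 hours of exposure in 96-well plates, responses at five concentrations were used to interpolate endpoints linearly. GI50 marks 50% less growth. The concentration for full growth arrest is given as TGI.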 A value given as a limit tells only on which side of the number the result lay.

For the compound `O=C1c2cccc3cccc(c23)C(=O)N1CCCCOc1ccc(-c2nc3ccc(N4CCOCC4)cc3[nH]2)cc1`, the GI50 is 11.1 µM in [1]; 7.35 µM in test [2]; 3.78 µM in test [3]; 2.91 µM in test [4]; 1.27 µM in [5]; 25.6 µM in test [6]. Further, the GI50 is 0.558 µM in test [7], 3.77 µM in test [8], 3.38 µM in [9] and 2.04 µM in test [10]. Moreover, the TGI is 66.9 µM in test [1]; more than 69.6 µM in test [2]; 13.7 µM in test [3]; more than 28.2 µM in test [4]; 4.39 µM in [5]; 47.6 µM in test [6]. For the same compound, the TGI is 3.21 µM in test [7], more than 84.4 µM in test [8], 20.2 µM in [9] and 4.54 µM in [10].

On to `COc1ccc(-n2c(N)c(C(=O)NCCN3CCOCC3)c3nc4ccccc4nc32)cc1OC`, for which the GI50 in test [1] is 4.92 µM; in test [2], 5.39 µM; in test [3], 6.97 µM; in test [4] it was 5.15 µM; in test [5], 3.36 µM; in test [6], 11.4 µM. The GI50 is 6.32 µM in test [7], 6.08 µM in test [8], 7.98 µM in [9] and 12.8 µM in [10]. Besides, the TGI is 67.4 µM in test [1]; more than 100 µM in test [2]; more than 100 µM in [3]; more than 100 µM in test [4]; more than 100 µM in [5]; more than 100 µM in test [6]. The TGI in [7] is 71.8 µM; in test [8], more than 100 µM; in test [9] it was more than 100 µM; in [10] it was more than 100 µM.

In the case of `CNCCNc1nc2ccccc2c2c(=O)c3cccc(OC)c3sc12`, the GI50 in [1] was 1 µM; in [2], 1.56 µM; in test [3], 1.11 µM; in [4] it was 1.43 µM; in test [5], 1.43 µM; in [6], 1.61 µM. The GI50 in test [7] is 1.83 µM; in [8], 1.2 µM; in test [9] it was 1.41 µM; in [10] it was 1.67 µM. Further, the TGI in test [1] came out at 2.44 µM; in test [2] it was 3.33 µM; in test [3], 2.68 µM; in [4] it was 3.2 µM; in test [5] it was 3.28 µM; in [6], 3.49 µM. Moreover, the TGI came out at 3.59 µM in [7], 2.78 µM in test [8], 2.97 µM in test [9] and 3.09 µM in test [10].

Turning to `O=C1NC(=NCCc2ccccc2Cl)S/C1=C\c1ccc2ncccc2c1`, the GI50 in test [1] was 5.75 µM; in test [2], 4.68 µM; in [3], 3.98 µM; in [4], 4.09 µM; in test [5] it was 1.83 µM; in test [6], 7.61 µM. Further, the GI50 was more than 21.3 µM in test [7], 5.16 µM in test [8], 3.68 µM in test [9] and 1.45 µM in test [10]. In addition, the TGI in test [1], in test [2], in [3], in test [4], in [5] and in test [6] was more than 25 µM in each case. For the same compound, the TGI in test [7] is more than 25 µM; in test [8], more than 25 µM; in test [9] it was 17.6 µM; in [10] it was 9.81 µM.

For the compound `C=C1C(=O)O[C@H]2[C@H]1CC/C(COC(=O)CCC(=O)OC/C1=C/CC[C@@]3(C)O[C@H]3[C@H]3OC(=O)C(=C)[C@@H]3CC1)=C\CC[C@@]1(C)O[C@@H]21`, the GI50 in test [1] is 2.26 µM; in test [2], 3.18 µM; in test [3], 0.455 µM; in test [4] it was 0.251 µM; in test [5] it was 1.22 µM; in test [6], 2.46 µM. For the same compound, the GI50 was 1.14 µM in test [7], 13.7 µM in test [8], 10.5 µM in [9] and 1.84 µM in [10]. In addition, the TGI in test [1] is 8.83 µM; in test [2], 14 µM; in test [3], 1.74 µM; in test [4], 0.778 µM; in test [5] it was 4.16 µM; in test [6], 11.7 µM. Also, the TGI in [7] worked out at 2.88 µM; in test [8], 30 µM; in test [9], 23.6 µM; in test [10], 4.65 µM.

In the case of `NC(=O)NC(=O)CI`, the GI50 is 3.67 µM in test [1]; 16.2 µM in [2]; 1.91 µM in test [3]; 0.757 µM in [4]; 5.38 µM in test [5]; 6.79 µM in [6]. Moreover, the GI50 is 1.42 µM in [7], 18.8 µM in test [8], 15 µM in test [9] and 4.02 µM in [10]. The TGI was found to be 11.5 µM in test [1]; 36.4 µM in test [2]; 3.73 µM in test [3]; 2.31 µM in test [4]; 13.1 µM in test [5]; 28.2 µM in test [6]. Also, the TGI in [7] amounted to 3.32 µM; in [8] it was 37.4 µM; in test [9] it was 31.7 µM; in test [10] it was 15.9 µM.

As for `CCCCOC(=O)N[C@H]1CCc2cc(OC)c(OC)c(OC)c2-c2ccc(SC)c(=O)cc21`, the TGI in test [1] is 92.5 µM; in test [2] it was 25.1 µM; in [3], less than 0.01 µM; in test [4], 35.8 µM; in [5], 17.1 µM; in test [6], 0.357 µM. Besides, the TGI in test [7] is 46.6 µM; in test [8], 98.9 µM; in test [9] it was 27.6 µM; in [10] it was less than 0.01 µM.

With `CSC(=S)N/N=C(\C)c1ccccn1`, the GI50 in [1] was 0.171 µM; in [2], 0.349 µM; in test [3], less than 0.01 µM; in test [4] it was less than 0.01 µM; in test [5] it was 0.0232 µM; in [6] it was 0.335 µM. In addition, the GI50 in test [7] is 0.177 µM; in test [8], 0.311 µM; in [9], 0.458 µM; in test [10] it was 0.407 µM. Besides, the TGI in test [1] is 17.4 µM; in [2], 14.5 µM; in test [3] it was 11.9 µM; in [4] it was 1.68 µM; in [5], 16.1 µM; in [6], 3.45 µM. In addition, the TGI in [7] stood at 9.1 µM; in test [8], 18 µM; in [9] it was 6.33 µM; in [10], 16.6 µM.
